Experimental data from patent US20240189315A1, “Cyclic Pyridine Derivatives as cGAS Inhibitors” (Boehringer Ingelheim International GmbH, priority 2022, published 2024).
Where two headings read alike, the source gives them in different places.

How the values were obtained:
Human cGAS enzyme = Human cGAS enzyme (Homo sapiens (Human), UniProt Q8N884); experiment: Human cGAS enzyme assay (hcGAS IC50, in vitro), cGAMP formation by RapidFire MS; assay type: biochemical;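 also: recombinant human cGAS activated by 45 bp dsDNA with 30 µM each ATP and GTP, 90 min, cGAMP vs cyclic-di-GMP standard by MS, 8-point titration from 10 µM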
Human cGAS enzyme, sequence (Q8N884 whole entry): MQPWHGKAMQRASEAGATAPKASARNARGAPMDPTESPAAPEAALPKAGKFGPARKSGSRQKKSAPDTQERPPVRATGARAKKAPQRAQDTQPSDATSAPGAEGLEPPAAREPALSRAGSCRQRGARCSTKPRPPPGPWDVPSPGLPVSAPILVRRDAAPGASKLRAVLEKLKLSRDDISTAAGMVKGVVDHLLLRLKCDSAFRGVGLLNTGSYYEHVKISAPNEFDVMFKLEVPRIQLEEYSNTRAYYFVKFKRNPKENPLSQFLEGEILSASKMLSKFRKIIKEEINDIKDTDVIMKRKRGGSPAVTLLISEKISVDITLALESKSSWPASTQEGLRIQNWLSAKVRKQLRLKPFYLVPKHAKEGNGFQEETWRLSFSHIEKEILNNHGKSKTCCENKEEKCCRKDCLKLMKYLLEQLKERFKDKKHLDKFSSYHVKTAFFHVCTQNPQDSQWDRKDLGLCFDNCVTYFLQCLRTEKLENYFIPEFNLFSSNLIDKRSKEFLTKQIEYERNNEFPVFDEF

[1] = target: cellular cGAS activity in baculovirus-stimulated THP1-Dual cells (Homo sapiens (Human), UniProt Q8N884); experiment: Human cGAS cell assay (THP1(vir) IC50): IFN induction in virus-stimulated THP1-Dual cells, IRF Lucia luciferase reporter; assay type: cell-based;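 also: Eight-point dilution series starting at 10 µM, 1% DMSO, 18 h at 37 °C, luminescence read-out, virus-free wells as 0% and DMSO-treated virus-stimulated wells as 100%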
cellular cGAS activity in baculovirus-stimulated THP1-Dual cells, sequence (Q8N884 whole entry): as above

[2] = system: pathway directly downstream of cGAS in cGAMP-stimulated THP1-Dual cells; experiment: cGAMP stimulated counter cell assay (THP1(cGAMP) IC50): IFN induction in cGAMP-stimulated THP1-Dual cells; assay type: cell-based, human; details: for IC50: Homo sapiens, THP1-Dual; for Ratio THP(cGAMP) IC50/ THP(vir) IC50: selectivity for cGAS inhibition
Text: 6.2 Method: Human cGAS Cell Assay and cGAMP Stimulated Counter Cell Assay (THP1(vir) IC50 and THP1(cGAMP) IC50)
THP1-Dual™ cells (InvivoGen #thpd-nfis) expressing IRF dependent Lucia luciferase reporter were used as basis for both assays. For the detection of cellular cGAS activity cells were stimulated by a baculovirus (pFastbac-1, Invitrogen, no coding insert) infection that delivers the cGAS enzyme stimulating double-stranded DNA (measurement of THP1(vir) IC50).
For the counter assay, cells were stimulated by cGAMP (SigmaAldrich #SML1232) to activate the identical pathway independent and directly downstream of cGAS (measurement of THP1(cGAMP) IC50). Pathway activity was monitored by measuring the Lucia luciferase activity induced by either DNA stimulated cGAS enzyme activity (measurement of THP1(vir) IC50) or by cGAMP directly (measurement of THP1(cGAMP) IC50, counter assay).
Compounds were delivered in 10 mM DMSO solution, serially diluted and transferred to the 384 well assay plate (Greiner #781201) using an Echo acoustic dispenser. Typically, 8 concentrations were used with the highest concentration at 10 μM in the final assay volume followed by ˜1:5 dilution steps. DMSO concentration was set to 1% in the final assay volume. The 384 well assay plate contained 21 test compounds (column 1-22), and DMSO in column 23 and 24.
Cells, cultivated according to manufacturer conditions, were harvested by centrifugation at 300 g/10 min and were then resuspended and diluted to 1.66E5 cells/ml in fresh cell culture medium (RPMI 1640 (Gibco #A10491-01), 10% FCS (Gibco #10500), 1× GlutaMax (Gibco #35050-061), 1× Pen/Strep solution (Gibco #15140-122), 100 μg/ml Normocin (InvivoGen #ant-nr), 100 μg/ml Zeocin (InvivoGen #ant-zn), 10 μg/ml Blasticidin S (Life Technologies #A11139-03)). The baculovirus solution was then added 1:200 (have varied according to virus batch) to the cells (measurement of THP1(vir) IC50). […] 30 μL of the cell/virus-mix were added to each well of the compound plate from column 1-23 via MultiDrop Combi dispenser (5000 cells/well). In column 24, 30 μl/5000 cells/well without virus were added as a low control.
The plates were then incubated for 18 h at 37° C. in a humidified incubator.
Following that, 15 μL of QuantiLuc detection reagent (InvivoGen #rep-qlcg5) were added to each well using a MultiDrop Combi. Measurement was done immediately after the addition using an EnVision reader (US-luminescence read-mode).
Data Evaluation and Calculation:
For data evaluation and calculation, the measurement of the low control was set as 0% control and the measurement of the high control was set as 100% control. The IC50 values were calculated using the standard 4 parameter logistic regression formula. Calculation: [y=(a−d)/(1+(x/c)^b)+d], a=low value, d=high value; x=conc M; c=IC50 M; b=slope

[3] = target: cellular cGAS activity in dsDNA-stimulated human whole blood (Homo sapiens (Human), UniProt Q8N884); experiment: Human whole blood assay (hWB IC50): IFNα2a production after dsDNA transfection; assay type: cell-based;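 also: IFNα-2a in plasma measured by MSD electrochemiluminescence immunoassay after 22 h at 37 °C, 8-point dilution series from 10 µM top concentration, DMSO wells as controls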
cellular cGAS activity in dsDNA-stimulated human whole blood, sequence (Q8N884 whole entry): as above

[4] = Table 1, virus-stimulated THP1 cells, read-out: THP(vir) IC50
[5] = Table 1, cGAMP-stimulated THP1 cells, read-out: THP(cGAMP) IC50
[6] = Table 1, dsDNA-stimulated human whole blood
[7] = Table 2, compounds from WO 2020/142729 re-tested in the applicant's assay
[8] = Table 2, compounds from WO 2020/142729, read-out: THP1(vir) IC50
[9] = Table 2, compounds from WO 2020/142729, read-out: THP1(cGAMP) IC50
[10] = Table 2, compounds from WO 2020/142729

IC50 (Human cGAS enzyme; Table 1) [nM]	IC50 [1, 4] [nM]	IC50 [3, 6] [nM]	SMILES	IC50 [2, 5] [nM]	Ratio THP(cGAMP) IC50/ THP(vir) IC50 ([2]; Table 1)	IC50 (Human cGAS enzyme; [7]) [nM]	IC50 ([1]; virus-stimulated THP1 cells, read-out: THP1(vir) IC50) [nM]	IC50 [1, 8] [nM]	IC50 [2, 9] [nM]	IC50 [3, 10] [nM]
12	69	114	C[C@H]1CN2CC[C@]1(F)c1cc(Cl)cnc1O[C@H]1C[C@@H](C(=O)O)N(C1)c1nc(nc3c1oc1ccccc13)CCCOCCC2=O [Example 23, (1R,9S,11S,34S)-4-Chloro-1-fluoro-34-methyl-31-oxo-8,15,28-trioxa-6,12,23,32,37-pentaazabestacyclo[30.2.2.1^9,12.1^13,24.0^2,7.0^14,22.0^16,21]octatriaconta-2,4,6,13(37),14(22),16(21),17,19,23-nonaene-11-carboxylic acid]	10000	148					
100	320	750	O=C(O)[C@@H]1C[C@H]2CN1c1nc(nc3c1oc1ccccc13)C(F)(F)CCCCCC(=O)N1CCC(F)(CC1)c1cc(Cl)cnc1O2 [Example 07]	12000	37					
6	35	18	C#Cc1cnc2c(c1)[C@@]1(F)CCN(C[C@@H]1C)C(=O)CCCOCCc1nc(c3oc4ccccc4c3n1)N1C[C@H](C[C@H]1C(=O)O)O2 [Example 18, (1R,9S,11S,34S)-4-ethynyl-1-fluoro-34-methyl-31-oxo-8,15,27-trioxa-6,12,23,32,37-pentaazaheptacyclo[30.2.2.1^9,12.1^13,24.0^2,7.0^14,22.0^16,21]octatriaconta-2,4,6,13,16,18,20,22,24(37)-nonaene-11-carboxylic acid]	4300	122					
7	70	22	C[C@H]1CN2CC[C@]1(F)c1cc(Cl)cnc1O[C@H]1C[C@@H](C(=O)O)N(C1)c1nc(nc3c1oc1cc(F)ccc13)CCCCOCC2=O [Example 30]	4700	67					
22	140	44	C[C@H]1CN2CC[C@]1(F)c1cc(Cl)cnc1O[C@H]1C[C@@H](C(=O)O)N(C1)c1nc(nc3c1oc1ccccc13)COCCCCC2=O [Example 08, (1R,9S,11S,34S)-4-chloro-1-fluoro-34-methyl-31-oxo-8,15,26-trioxa-6,12,23,32,37-pentaazabestacyclo[30.2.2.1^9,12.1^13,24.0^2,7.0^14,22.0^16,21]octatriaconta-2,4,6,13(37),14(22),16(21),17,19,23-nonaene-11-carboxylic acid]	> 10000	69					
22	42	149	C[C@H]1CN2CC[C@]1(F)c1cc(Cl)cnc1O[C@H]1C[C@@H](C(=O)O)N(C1)c1nc(nc3c1oc1ccccc13)COCCCOC2=O [Example 13, (1R,9S,11S,34S)-4-chloro-1-fluoro-34-methyl-31-oxo-8,15,26,30-tetraoxa-6,12,23,32,37-pentaaabestacyclo[30.2.2.1^9,12.1^13,24.0^14,22.0^16,21]octatriaconta-2(7),3,5,13(37),14(22),16(21),17,19,23-nonaene-11-carboxylic acid]	16000	256					
			Cc1nc(N2C[C@@H](Cc3nn[nH]n3)C[C@H]2C(=O)O)c2oc3ccccc3c2n1 [Example No. 25 of WO 2020/142729, reference compound]			55	17000			
7	3	5	C[C@H]1CN2CC[C@]1(F)c1cc(Cl)cnc1O[C@H]1C[C@@H](C(=O)O)N(C1)c1nc(nc3c1oc1ccccc13)C(F)(F)CCCOCC2=O [Example 31]	7200	3002					
7	110	116	C[C@H]1COCCCc2nc(c3oc4ccccc4c3n2)N2C[C@H](C[C@H]2C(=O)O)Oc2ncc(Br)cc2[C@@]2(F)CCN(C[C@@H]2C)C1=O [Example 25]	1700	16					
17	610	84	C[C@H]1CN2CC[C@]1(F)c1cc(Cl)cnc1O[C@H]1C[C@@H](C(=O)O)N(C1)c1nc(nc3c1oc1ccccc13)COCCCCCC2=O [Example 12]	10000	17					
11	36	101	C[C@H]1CN2CC[C@]1(F)c1cc(Cl)cnc1O[C@H]1C[C@@H](C(=O)O)N(C1)c1nc(nc3c1oc1ccccc13)CCOCCCC2=O [Example 16]	6600	184					
13	140	96	C[C@H]1CN2CC[C@]1(F)c1cc(Br)cnc1O[C@H]1C[C@@H](C(=O)O)N(C1)c1nc(nc3c1oc1ccccc13)CCOCCCC2=O [Example 17]	5600	40					
5	8	9	C[C@H]1CN2CC[C@]1(F)c1cc(Cl)cnc1O[C@H]1C[C@@H](C(=O)O)N(C1)c1nc(nc3c1oc1cc(F)ccc13)C(F)(F)CCCOCC2=O [Example 32]	> 10000	1190					
			Cc1nc(N2C[C@@H](CC(=O)Nc3ccncc3)C[C@H]2C(=O)O)c2oc3ccccc3c2n1 [Example 28]			630		> 32000	> 17000	> 9990
68	190	339	C[C@H]1CN2CC[C@]1(F)c1cc(Cl)cnc1O[C@H]1C[C@@H](C(=O)O)N(C1)c1nc(nc3c1oc1ccccc13)COCCCC(F)(F)C2=O [Example 10, (1R,9S,11S,34S)-4-chloro-1,30,30-trifluoro-34-methyl-31-oxo-8,15,26-trioxa-6,12,23,32,37-pentaazaheptacyclo[30.2.2.1^9,12.1^13,24.0^2,7.0^14,22.0^16,21]octatriaconta-2,4,6,13,16,18,20,22,24(37)-nonaene-11-carboxylic acid]	12000	61					
11	70	47	C[C@H]1CN2CC[C@]1(F)c1cc(Cl)cnc1O[C@H]1C[C@@H](C(=O)O)N(C1)c1nc(nc3c1oc1ccccc13)C(F)(F)OCCCCC2=O [Example 15, (1R,9S,11S,34S)-4-chloro-1,25,25-trifluoro-34-methyl-31-oxo-8,15,26-trioxa-6,12,23,32,37-pentaazaheptacyclo[30.2.2.1^9,12.1^13,24.0^2,7.0^14,22.0^16,21]octatriaconta-2(7),3,5,13(37),14(22),16(21),17,19,23-nonaene-11-carboxylic acid]	8200	117					
			Cc1nc(N2C[C@@H](Cc3nn[nH]n3)C[C@H]2C(=O)O)c2oc3ccccc3c2n1 [Example 25]					> 17000	> 17000	> 9990
	830	409	C[C@H]1CN2CC[C@]1(F)c1cc(Cl)cnc1O[C@H]1C[C@@H](C(=O)O)N(C1)c1nc(nc3c1oc1ccccc13)CCCCOC2=O [Example 35, (1R,9S,11S,33S)-4-chloro-1-fluoro-33-methyl-30-oxo-8,15,29-trioxa-6,12,23,31,36-pentaazaheptacyclo[29.2.2.1^9,12.1^13,24.0^2,7.0^14,22.0^16,21]heptatriaconta-2,4,6,13(36),14(22),16(21),17,19,23-nonaene-11-carboxylic acid]							
